pIC50: −log10 of the molar value.
Tests used:
[1] = Liver toxicity on chronic administration; assay type: in vivo; conditions: 100 mpk/d for 4 wks, all animal models tested
[2] = cited from earlier work
[3] = system: cardiac dysfunction, hypertrophy, fibrosis; assay: Thoracic aortic banding (TAC) or chronic hypertension (HF) model; assay type: in vivo, mice
Excerpt: (§1) Mice lacking LDL receptors (LDLR −/−) were similarly maintained on a high fat/sucrose Western diet and treated with SC-26196 in a similar manner as described above. As summarized in FIG. 5, SC-26196 treatment ameliorated hyperlipidemia and atherosclerosis in mice lacking LDL receptors fed the Western diet. The treatment also attenuated cardiac dysfunction, pathologic hypertrophy and fibrosis in mice subjected to thoracic aortic banding (TAC) or chronic hypertension (HF), as summarized in FIG. 6.

leptin-deficient ob mice = assay: ob/ob mice (hyperphagic obesity) on normal diet treated 4 weeks; assay type: in vivo
Protocol: (§2) To assess the effects of D6D inhibition on structures and processes related to cardiometabolic diseases and disorders, the following experiments were conducted. Animal studies have reported evidence of increased D6D activity in rodent models of CMD (e.g., increase in AA/LA in tissue phospholipids), making them reasonable models for studying the role of D6D in its pathogenesis. To probe the effect of D6D directly, the compound SC-26196, a selective D6D inhibitor was orally administered by admixing the SC-26196 in the food mixtures of the rodent models of CMD at a dosage of about 100 mg/kg/day for four weeks. The rodent models of CMD used in these experiments included a murine model of hyperphagic obesity (leptin-deficient ob mice) and a diet-induced insulin resistance model (normal C57BI/6 mice fed a high-fat “Western” diet) for 8 weeks prior to participation in any experiments.
Initially, the effects of D6D inhibition in conjunction with a normal diet were assessed. 4 mo old ob/ob mice were administered the selective D6D inhibitor SC-26196 (100 mg/kg/d mixed in chow) for 4 weeks (ob/ob+D6D−; n=12). The ob mice treated with SC-26196 for four weeks (ob+SC) were compared to untreated ob mice (ob) and normal C57BI/6 mice (BI/6). FIGS. 3A-C summarizes the results of this comparison. […] As summarized in FIG. 7, treatment with SC-26196 normalized responses to a glucose tolerance test, decreased serum insulin, and reduced hepatic macrophage (MΦ) content and ser-307 phosphorylation of IRS-1, the canonical cellular mechanism of hepatic insulin resistance resulting from inflammatory signaling. As summarized in FIGS. 8A and 8B, treatment with SC-26196 reduced the hepatic PC/PE ratio in the treated ob mice. FIG. 9 illustrates that SC-26196 treatment normalized the cardiac phospholipid/cardiolipin composition in the treated ob mice.

delta-6 desaturase (D6D) [4] = conditions: cited from earlier work
[5] = target: T1, microsomal triglyceride transfer protein (MTP) (Bos taurus, UniProt P55156); assay: MTP activity, purified bovine MTP; assay type: biochemical; conditions: relatively weak potency
T1 sequence (P55156 12-887): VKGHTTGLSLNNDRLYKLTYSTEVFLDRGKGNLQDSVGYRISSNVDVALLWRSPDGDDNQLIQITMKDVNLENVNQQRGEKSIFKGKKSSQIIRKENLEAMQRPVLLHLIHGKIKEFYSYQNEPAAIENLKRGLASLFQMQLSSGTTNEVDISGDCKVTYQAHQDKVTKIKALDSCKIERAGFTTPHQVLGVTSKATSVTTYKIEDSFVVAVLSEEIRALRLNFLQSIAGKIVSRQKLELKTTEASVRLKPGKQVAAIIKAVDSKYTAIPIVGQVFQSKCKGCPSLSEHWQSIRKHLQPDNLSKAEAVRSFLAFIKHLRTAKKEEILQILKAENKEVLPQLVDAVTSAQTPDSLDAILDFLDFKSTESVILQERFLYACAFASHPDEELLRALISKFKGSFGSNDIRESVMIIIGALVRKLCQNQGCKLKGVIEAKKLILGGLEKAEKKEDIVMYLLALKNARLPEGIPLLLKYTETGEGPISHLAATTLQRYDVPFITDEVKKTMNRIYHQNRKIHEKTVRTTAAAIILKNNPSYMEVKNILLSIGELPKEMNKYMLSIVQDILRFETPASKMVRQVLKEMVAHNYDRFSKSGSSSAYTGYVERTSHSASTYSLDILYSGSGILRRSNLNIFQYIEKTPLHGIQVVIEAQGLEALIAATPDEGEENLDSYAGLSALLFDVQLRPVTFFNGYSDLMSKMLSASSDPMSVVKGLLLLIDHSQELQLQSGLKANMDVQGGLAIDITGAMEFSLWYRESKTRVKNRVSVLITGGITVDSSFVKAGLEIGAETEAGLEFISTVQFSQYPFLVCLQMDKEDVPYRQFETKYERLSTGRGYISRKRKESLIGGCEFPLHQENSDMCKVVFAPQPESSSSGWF
T1 sequence (P05307 21-510 partner): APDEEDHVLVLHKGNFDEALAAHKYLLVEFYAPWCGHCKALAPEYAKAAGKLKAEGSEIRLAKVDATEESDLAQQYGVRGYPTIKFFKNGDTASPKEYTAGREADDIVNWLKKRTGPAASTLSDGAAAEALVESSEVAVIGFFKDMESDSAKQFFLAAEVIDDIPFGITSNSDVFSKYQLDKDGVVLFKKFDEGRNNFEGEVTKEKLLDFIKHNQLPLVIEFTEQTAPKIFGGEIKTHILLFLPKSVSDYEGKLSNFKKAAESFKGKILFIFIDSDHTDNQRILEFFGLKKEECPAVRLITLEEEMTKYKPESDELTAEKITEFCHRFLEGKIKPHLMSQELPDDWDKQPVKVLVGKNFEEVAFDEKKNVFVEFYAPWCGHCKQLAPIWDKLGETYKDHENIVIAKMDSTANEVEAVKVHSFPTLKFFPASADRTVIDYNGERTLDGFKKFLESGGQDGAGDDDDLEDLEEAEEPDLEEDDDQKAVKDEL

LDLR -/- mice = assay: LDL receptor-lacking mice on Western diet; assay type: in vivo
Excerpt: as §1

[6] = target: T2, microsomal triglyceride transfer protein (MTP) (Rattus norvegicus, UniProt D4A1W8); assay: MTP activity, rat liver microsomal extracts; assay type: biochemical; conditions: rat liver microsomal extracts at 100 mpk dosing in vivo; relatively weak potency
T2 construct: rat liver microsomal extracts; from tissue; host or cells: rat liver microsomal extracts
T2 sequence (D4A1W8 22-896): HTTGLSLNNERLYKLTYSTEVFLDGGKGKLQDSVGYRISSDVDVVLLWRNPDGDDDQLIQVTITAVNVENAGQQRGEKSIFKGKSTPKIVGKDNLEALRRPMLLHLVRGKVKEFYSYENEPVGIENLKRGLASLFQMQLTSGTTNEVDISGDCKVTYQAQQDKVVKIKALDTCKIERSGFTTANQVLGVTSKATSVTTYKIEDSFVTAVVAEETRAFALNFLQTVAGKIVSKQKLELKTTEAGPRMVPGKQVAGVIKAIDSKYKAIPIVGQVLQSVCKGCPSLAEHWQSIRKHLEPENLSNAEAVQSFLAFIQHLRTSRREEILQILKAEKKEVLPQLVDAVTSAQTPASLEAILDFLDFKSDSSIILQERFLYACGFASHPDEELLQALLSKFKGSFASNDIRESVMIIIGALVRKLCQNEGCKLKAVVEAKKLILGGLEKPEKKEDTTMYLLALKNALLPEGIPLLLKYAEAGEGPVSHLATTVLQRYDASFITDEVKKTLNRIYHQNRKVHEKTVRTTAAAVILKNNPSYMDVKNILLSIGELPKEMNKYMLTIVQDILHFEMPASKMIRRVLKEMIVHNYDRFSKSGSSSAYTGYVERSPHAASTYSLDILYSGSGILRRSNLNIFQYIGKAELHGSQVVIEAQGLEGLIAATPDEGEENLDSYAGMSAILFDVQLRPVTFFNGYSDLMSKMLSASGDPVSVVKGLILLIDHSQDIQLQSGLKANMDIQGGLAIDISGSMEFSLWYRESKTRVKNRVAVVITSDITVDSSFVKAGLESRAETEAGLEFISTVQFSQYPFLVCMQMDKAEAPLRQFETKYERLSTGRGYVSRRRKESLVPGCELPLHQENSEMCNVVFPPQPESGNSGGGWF
T2 sequence (P04785 20-509 partner): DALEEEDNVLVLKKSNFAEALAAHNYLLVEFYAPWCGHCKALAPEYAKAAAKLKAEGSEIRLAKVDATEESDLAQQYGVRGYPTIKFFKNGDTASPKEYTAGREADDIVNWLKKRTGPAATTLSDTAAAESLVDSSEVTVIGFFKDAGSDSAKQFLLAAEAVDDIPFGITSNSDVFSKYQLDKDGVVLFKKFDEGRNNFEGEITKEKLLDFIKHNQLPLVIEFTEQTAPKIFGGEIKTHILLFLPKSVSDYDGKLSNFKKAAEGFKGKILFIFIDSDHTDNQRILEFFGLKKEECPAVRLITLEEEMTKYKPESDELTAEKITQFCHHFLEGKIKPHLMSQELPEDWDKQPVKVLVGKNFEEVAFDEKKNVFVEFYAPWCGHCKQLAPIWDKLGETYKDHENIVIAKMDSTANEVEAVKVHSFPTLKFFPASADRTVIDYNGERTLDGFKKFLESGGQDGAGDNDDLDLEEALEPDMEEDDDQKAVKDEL

tissue AA/LA ratios = conditions: cited from earlier work
delta-6 desaturase (D6D) [7] = target: T3, delta-6 desaturase (D6D) (Mus musculus, UniProt Q9Z0R9); conditions: cited from earlier work
T3 construct: host or cells: endogenous enzyme of the dosed animal
T3 sequence (Q9Z0R9 1-444): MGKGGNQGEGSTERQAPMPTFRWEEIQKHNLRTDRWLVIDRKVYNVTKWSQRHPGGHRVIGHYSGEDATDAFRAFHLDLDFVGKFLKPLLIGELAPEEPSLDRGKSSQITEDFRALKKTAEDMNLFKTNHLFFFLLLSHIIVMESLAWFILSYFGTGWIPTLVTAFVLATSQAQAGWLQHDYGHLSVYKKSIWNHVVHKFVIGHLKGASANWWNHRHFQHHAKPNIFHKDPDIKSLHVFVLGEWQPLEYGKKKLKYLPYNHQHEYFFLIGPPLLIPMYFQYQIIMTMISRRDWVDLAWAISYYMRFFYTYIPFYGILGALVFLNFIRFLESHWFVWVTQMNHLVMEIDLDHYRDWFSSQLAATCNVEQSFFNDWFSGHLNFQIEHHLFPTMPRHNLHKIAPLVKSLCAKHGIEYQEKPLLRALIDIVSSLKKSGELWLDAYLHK

ob mice = ob mice on high fat/sucrose Western diet; assay type: in vivo
Protocol: as §2
To assess the interaction of a high-fat Western diet with the effects of D6D inhibition, the following experiment was conducted. The ob mice and the BI/6 mice were maintained on a high fat/sucrose Western diet and part of each group was treated with SC-26196 in a similar manner as described above. The treated and untreated ob and BI/6 mice were compared. FIGS. 4A-4B summarize the results of this experiment.

[8] = ob mice, normal diet, 100 mg/kg/d
[9] = ob/ob mice, cardiac, 100 mg/kg/d, vs lean C57BI/6
[10] = 100 mpk/d mixed in mouse chow, 4 weeks

N#CC(CCCN1CCN(/N=C/c2cccnc2)CC1)(c1ccccc1)c1ccccc1 [SC-26196, (E)-2,2-Diphenyl-5-{4-[(pyridin-3-yl-methylene)amino]piperazin-1-yl}pentanenitrile]
hepatomegaly [1]: significant hepatomegaly
Peak plasma levels ([2]; 100 mpk ig dosing): 2 µM
half-life ([2]; 100 mpk ig dosing): 1.2 h
bioavailability ([2]; 100 mpk ig, based on AUC calculations): about 60%
cardiac dysfunction [3]: attenuated
fibrosis [3]: attenuated
pathologic hypertrophy [3]: attenuated
ser-307 phosphorylation of IRS-1 (leptin-deficient ob mice; ob mice, liver, normal diet, 100 mg/kg/d): reduced
cardiac oxidative stress (leptin-deficient ob mice; [8]): reduced
cardiac phospholipid/cardiolipin composition (leptin-deficient ob mice; [8]): normalized
eicosanoid species in heart tissue (leptin-deficient ob mice; [8]): abolished significant increases
eicosanoid species in serum (leptin-deficient ob mice; [8]): abolished significant increases
hepatic PC/PE ratio (leptin-deficient ob mice; [8]): reduced
hepatic macrophage content (leptin-deficient ob mice; [8]): reduced
responses to a glucose tolerance test (leptin-deficient ob mice; [8]): normalized
serum insulin (leptin-deficient ob mice; [8]): decreased
phospholipid AA/LA ratio of serum, liver, heart and muscle tissue (leptin-deficient ob mice; ob mice, normal diet, 100 mg/kg/d in chow): reversed significant elevations
cardiac cardiolipin profile (leptin-deficient ob mice; ob/ob mice, 100 mg/kg/d in chow, vs lean C57BI/6): to levels similar to those in lean age-matched control mice
membrane peroxidizability index (leptin-deficient ob mice; [9]): to levels similar to those in lean age-matched control mice
phospholipid D6D activity index (20:4/18:2 ratio) (leptin-deficient ob mice; [9]): to levels similar to those in lean age-matched control mice
phospholipid DHA content (leptin-deficient ob mice; [9]): to levels similar to those in lean age-matched control mice
selectivity for D6D over other desaturase enzymes (delta-6 desaturase (D6D) [4]): potent selectivity
pIC50 (delta-6 desaturase (D6D) [4]; in vitro): 6.70
MTP activity [5]: inhibited MTP activity
atherosclerosis (LDLR -/- mice): ameliorated
hyperlipidemia (LDLR -/- mice): ameliorated
MTP activity [6]: inhibited MTP activity
effect in a model of acute inflammation (tissue AA/LA ratios; [10]): protective effects
tissue AA/LA ratios (tissue AA/LA ratios; [10]): reduced
reversing elevations of tissue AA/LA associated with acute inflammation (tissue AA/LA ratios; lower doses, 50 and 75 mpk/d, 4 wks): ineffective
inhibition of D6D enzymatic activity in vivo (delta-6 desaturase (D6D) [7]; 100 mg/kg b.i.d., i.g. over a 24 hr period): about 65%
oral activity (delta-6 desaturase (D6D) [7]; at 100 mpk): oral activity
fasting blood glucose (ob mice): reduced
responses to a glucose tolerance test (ob mice): normalized
serum insulin levels (ob mice): normalized 8-fold elevations
